We go through three compounds from patent US20080182806A1, “USE OF ACETYLATED OR ESTERIFICATED AZACYTIDINE, DECITABINE, OR OTHER NUCLEOSIDE ANALOGS AS ORAL AGENTS FOR THE TREATMENT OF TUMORS OR OTHER DYSPLASTIC SYNDROMES SENSITIVE TO HYPOMETHYLATING AGENTS” (Nevada Cancer Institute, priority 2007, published 2008).

For one data set, the system named is global DNA methylation. As to the kind of experiment: Global DNA methylation in mouse tissues (Epigentek Methylamp Global DNA Methylation Quantification Kit). Particulars: for effect on global DNA methylation in the kidneys after 48 hours / reduction in global DNA methylation in the kidneys: 38 mg/kg TAC p.o. or 25 mg/kg ACT i.v.; for reduction in global DNA methylation in the kidneys: within 24 hours. Format: in vivo, mice. Here is the method: The pharmacodynamic effect of TAC and ACT was determined at 24 and 48 hours following drug administration after the female C57/BL6 mice were euthanized, their tissues rapidly harvested, snap-frozen in liquid nitrogen, and stored at −80° C. The effect on methylation was determined by using the Epigentek Methylamp™ Global DNA Methylation Quantification Kit. Isolated genomic DNA from mouse tissues 24 or 48 hours after treatment with 25 mg/kg ACT i.v. and 38 mg/kg TAC p.o., methylation status was determined using 100 ng of each gDNA sample.

Another data set deals with Lymphoid leukemia L1210. As to the kind of experiment: Survival of leukemic BDF1 mice inoculated i.p. with L1210 cells. Format: in vivo. The method, then:
Lymphoid leukemia L1210 was carried in BDF1 mice by weekly i.p. passages. Ascites fluid was aspirated from a donor mouse and sampled, and an aliquot was carefully diluted and counted in a hemocytometer. The original suspension of cells was then diluted appropriately in […] medium to 1×10^6 cells/ml. and injected i.p. (1×10^5 cells/0.1 ml/mouse) into recipient BDF1 mice.
A daily oral administration injection of TAC (38 mg/kg) diluted in PBS was given to leukemic BDF1 mice by oral gavage starting 24 hours from the inoculation of L1210 cells for a total of 5 days. A group of untreated leukemic mice of the same strain, sex, age, and weight served as controls.

Data set [1] can be described thus: Pharmacokinetics and metabolism of TAC in mice (plasma LC/MS/MS). Format: in vivo. Particulars: female, C57/BL6, mouse. The method, then: The title product and its active metabolite azacytidine (ACT) were then subjected to LC/MS/MS analysis using the following protocol. Stock solutions were prepared by weighing out 5-10 mg of TAC which was dissolves in methanol to a final concentration of about 0.5 mg/ml. The solution was labeled as “TAC Stock.” 2-3 mg of ACT were then weighed and dissolved in methanol to a final concentration of about 0.2 mg/ml. The solution was labeled as “ACT Stock.” Finally, the TAC and ACT stocks were diluted to a concentration of about 50 μg/ml in methanol, and labeled as “ACT/TAC Stock.” All solutions were stored at −20° C. […]
Samples were then initially prepared as follows. A measured aliquot of the acetonitrile extracted plasma sample was removed and placed into a 10×75 mm disposable glass test tube, followed by evaporating liquid down to approximately 50 μl under nitrogen at 37° C., diluting with 1 ml 2% phosphoric acid, and vortexing for 10 seconds at 3,000 rpm.
The samples were then analyzed by the SPE, HPLC and MS/MS methods. […]
Individual concentration-time data were analyzed using noncompartmental methods using WinNonlin Professional (Pharsight, Mountain View, Calif.). […] The terminal rate constant (λz) is determined from the slope of the terminal phase of the plasma concentration-time curve using uniform weight. The terminal half-life (T1/2) was calculated as 0.693 divided by λz. […]

Data set [2] relates to myelodysplastic syndromes. To be noted: 15 mg/m^2 intravenously over 4 hours three times a day for 3 days; cited from earlier work.
Data set [3] deals with myelodysplastic syndromes. To be noted: 75 mg/m^2 subcutaneously daily for 7 days every 4 weeks, cited from earlier work.

SMILES strings stand for the structures.

Broadly, the half-life is how long it takes for the measured level to halve. Low values mean fast loss, high ones slow loss.

On to `CC(=O)OC[C@H]1O[C@@H](n2cnc(N)nc2=O)[C@H](OC(C)=O)[C@@H]1OC(C)=O` [TAC, 2′,3′,5′-triacetyl-5-azacytidine], for which, in the data set with global DNA methylation, the “effect on global DNA methylation in the kidneys after 48 hours” value was “subsided” and the “reduction in global DNA methylation in the kidneys” value was determined as 50%. Further, the “further decrease in methylation in spleen compared to untreated tissue” value in the data set with global DNA methylation (spleen, later time point, oral TAC 38 mg/kg) turned out to be 40%. The same compound showed a median survival time in the data set with Lymphoid leukemia L1210 (TAC 38 mg/kg daily by oral gavage for 5 days, starting 24 hours after L1210 inoculation) of 14 days. The compound also came in with an increased lifespan in the data set with Lymphoid leukemia L1210 (TAC 38 mg/kg daily oral for 5 days versus untreated control group) of 55%. Moreover, the concentration at 4 h in data set [1] (plasma, by 4 hours after oral administration of 38 mg/kg TAC, read-out: TAC plasma concentration (below the limit of detection)) is below 30 ng/mL.
Take `Nc1ncn([C@H]2C[C@H](O)[C@@H](CO)O2)c(=O)n1` [decitabine, 4-amino-1-(2-deoxy-b-D-erythro-pentofuranosyl)-1,3,5-triazin-2(1H)-one]: the overall response rate in data set [2] is recorded as 49%.
With `Nc1ncn([C@@H]2O[C@H](CO)[C@@H](O)[C@H]2O)c(=O)n1` [ACT, 4-amino-1-β-D-ribofuranosyl-1,3,5-triazin-2(1H)-one], in the data set on global DNA methylation, the “effect on global DNA methylation in the kidneys after 48 hours” value is “subsided” and the “reduction in global DNA methylation in the kidneys” value was found to be 50%. The “mean time to response” value in data set [3] was “six”. In data set [3] (higher-risk groups), the response is 61%. In data set [3] (lower-risk patients with refractory anemia), the response rate is 60%. The compound further had a half-life in data set [1] (iv, 25 mg/kg, azacytidine administered i.v., mice plasma) of 4 to 5 h.
